Experiments:
[1] = Spectrophotometric response of dyes in dilute acetonitrile solution; format: physicochemical; conditions: for Extinction: in M-1 cm-1 (unit assumed)
Excerpt: As mentioned previously, many characteristics of a photographic image depend upon the spectral response of the dyes forming that image. The greater the molar extinction of an image-forming dye the less silver is needed to produce that dye; lower silver laydowns may lead to sharper photographic images. The color of a dye depends upon the position of its maximum light absorption (λ-max). With yellow dyes, the deeper (more bathochromic) the λmax of the dye the more orange the color of the dye. Orange dyes cannot be employed to effectively reproduce bright lemon yellows, thus lighter yellow dyes arc preferred for better color reproduction. Finally, the ideal yellow dye absorbs only light in the blue portion of the visible spectrum; yellow dyes that absorb substantial amounts of green light appear desaturated and therefore yield poorer color reproduction. The bathochromic (long wavelength side) one-half bandwidth (B1/2BW) is a good measure of the degree of unwanted absorption of a yellow dye. The B1/2BW is the distance on the long wavelength side of the dye's spectral response curve, in nanometers, from the λmax to the wavelength of 1/2 the maximum absorption. The smaller the B1/2BW distance, the more sharp-cutting is the spectral response of a dye and the better the color reproduction available from the dye.
^a. Spectrophotometric data derived from dilute acetonitrile solution
of chromatographically homogenous dyes; see Table 3 for invention dye

[2] = Accelerated solution test of acid hydrolysis of yellow dyes (HPLC); format: physicochemical; design: kobs rate of hydrolysis: unit not given here; conditions: 1 mM dye in 6% Triton X100, pH 2.0, phosphate buffer, 50° C.
Description: The hydrolytic stability or acid catalyzed decomposition of yellow azomethine dyes is an important pathway in the degradation of photographic images. It is believed that the stability of yellow dyes toward acidic hydrolysis is predictive of their stability in color photographic images.
The rates of hydrolysis of a variety of dyes have been measured using an accelerated solution test format. The dyes (1.0 mM dye in 6% Triton X-100®) in buffered acidic solutions (pH=2.0, μ=0.2, phosphate buffer) were held at 50° C. The rates of dye destruction were monitored using standard HPLC procedures.
^a. 1 mM dye in 6% Triton X100 ® (60 g/l octylphenoxy
polyethoxyethanols, Avg M.W. = 646) solution in pH 2.0, […],
phosphate buffer at 50° C.

| Compound | B1/2BW (bathochromic one-half bandwidth) [1] [nm] | λmax [1] [nm] | Extinction [1] | kobs rate of hydrolysis [2] | t1/2 - time for 1/2 the dye to hydrolyze [2] |
| --- | --- | --- | --- | --- | --- |
| CCCCc1ccc(NC(=O)C(=Nc2ccc(N(CC)CCNS(C)(=O)=O)cc2C)C(=O)c2cn(-c3ccccc3)cc2C)cc1 [Cmp-2, reference compound] | 40 | 428 | 13,900 |  |  |
| CCCCCCCCCCCCCCCCCCOc1ccc(S(=O)(=O)Nc2ccccc2Cl)cc1NC(=O)C(=Nc1ccc(N(CC)CCNS(C)(=O)=O)cc1C)C(=O)N1CCc2ccccc21 [Cmp-6, reference compound] |  |  |  | 2.48 | 78 h |
| CCCCc1ccc(NC(=O)C(=Nc2ccc(N(CC)CCNS(C)(=O)=O)cc2C)C(=O)C(C)(C)C)cc1 [Cmp-7, reference compound] | 42 | 428 | 11,800 |  |  |
| CCCCCCCCCCCCOC(=O)c1ccc(Cl)c(NC(=O)C(=Nc2ccc(N(CC)CCNS(C)(=O)=O)cc2C)C(=O)C(C)(C)C)c1 [Cmp-10, reference compound] |  |  |  | 5.57 | 35 h |
| CCCCc1ccc(NC(=O)C(=Nc2ccc(N(CC)CCNS(C)(=O)=O)cc2C)C(=O)c2c(C)[nH]c3ccccc23)cc1 [Coupler D-2] | 37 | 426 | 10,000 |  |  |
| CCCCc1ccc(NC(=O)C(=Nc2ccc(N(CC)CCNS(C)(=O)=O)cc2C)C(=O)c2cn(C)c3ccccc23)cc1 [Coupler D-3] | 39 | 428 | 13,500 |  |  |
| CCCCc1ccc(NC(=O)C(=Nc2ccc(N(CC)CCNS(C)(=O)=O)cc2C)C(=O)c2c(C)n(C)c3ccccc23)cc1 [Coupler D-4] | 37 | 428 | 16,200 |  |  |
| CCCCc1ccc(NC(=O)C(=Nc2ccc(N(CC)CCNS(C)(=O)=O)cc2C)C(=O)c2c3n(c4ccccc24)CCCC3)cc1 [Coupler D-6] | 38 | 426 | 17,300 |  |  |
| CCCCc1ccc(NC(=O)C(=Nc2ccc(N(CC)CCNS(C)(=O)=O)cc2C)C(=O)c2c(-c3ccccc3)n(-c3ccccc3)c3ccccc23)cc1 [Coupler D-8] | 33 | 426 | 16,600 |  |  |
| CCCCc1ccc(NC(=O)C(=Nc2ccc(N(CC)CCNS(C)(=O)=O)cc2C)C(=O)c2c3c(n(C)c2-c2ccccc2)CCC3)cc1 [Coupler D-10] | 35 | 424 | 17,700 |  |  |
| CCCCCCCCCCCCS(=O)(=O)c1ccc(NC(=O)C(=Nc2ccc(N(CC)CCNS(C)(=O)=O)cc2C)C(=O)c2c(-c3ccccc3)n(C)c3ccccc23)c(Cl)c1 [Coupler D-15] |  |  |  | 0.17 | 1,150 hr |
| CCCCCCCCCCCCn1c(-c2ccccc2)c(C(=O)C(=Nc2ccc(N(CC)CCNS(C)(=O)=O)cc2C)C(=O)Nc2ccc(S(C)(=O)=O)cc2Cl)c2ccccc21 [Coupler D-16] |  |  |  | 0.38 | 500 h |
| CCCCCCCCCCCCCCCCOC(=O)c1ccc(Cl)c(NC(=O)C(=Nc2ccc(N(CC)CCNS(C)(=O)=O)cc2C)C(=O)c2c(C)n(C)c3ccccc23)c1 [Coupler D-18] |  |  |  | 9.63 | 20 h |

Now from value to compound:

| B1/2BW (bathochromic one-half bandwidth) [1] [nm] | λmax [1] [nm] | Extinction [1] | kobs rate of hydrolysis [2] | t1/2 - time for 1/2 the dye to hydrolyze [2] | Compound |
| --- | --- | --- | --- | --- | --- |
| 42 | 430 | 12,800 |  |  | CCCCc1ccc(NC(=O)C(=Nc2ccc(N(CC)CCNS(C)(=O)=O)cc2C)C(=O)c2ccn(-c3ccccc3)c2)cc1 [Cmp-1, reference compound] |
| 40 | 426 | 13,700 |  |  | CCCCc1ccc(NC(=O)C(=Nc2ccc(N(CC)CCNS(C)(=O)=O)cc2C)C(=O)c2cccn2-c2ccccc2)cc1 [Cmp-3, reference compound] |
| 40 | 434 | 12,600 |  |  | CCCCc1ccc(NC(=O)C(=Nc2ccc(N(CC)CCNS(C)(=O)=O)cc2C)C(=O)c2ccn(-c3ccccc3)c2C)cc1 [Cmp-4, reference compound] |
|  |  |  | 12.1 | 16 h | CCCCCCCCCCCCCCCCS(=O)(=O)Nc1ccc(Cl)c(NC(=O)C(=Nc2ccc(N(CC)CCNS(C)(=O)=O)cc2C)C(=O)C(C)(C)C)c1 [Cmp-11, reference compound] |
| 32 | 426 | 19,700 |  |  | CCCCc1ccc(NC(=O)C(=Nc2ccc(N(CC)CCNS(C)(=O)=O)cc2C)C(=O)c2c(-c3ccccc3)n(C)c3ccccc23)cc1 [Coupler D-1] |
| 37 | 428 | 16,800 |  |  | CCCCc1ccc(NC(=O)C(=Nc2ccc(N(CC)CCNS(C)(=O)=O)cc2C)C(=O)c2c(C3CCCCC3)n(C)c3ccccc23)cc1 [Coupler D-5] |
| 35 | 430 | 14,100 |  |  | CCCCc1ccc(NC(=O)C(=Nc2ccc(N(CC)CCNS(C)(=O)=O)cc2C)C(=O)c2c(-c3ccccc3)[nH]c3ccccc23)cc1 [Coupler D-7] |
| 34 | 422 | 19,300 |  |  | CCCCc1ccc(NC(=O)C(=Nc2ccc(N(CC)CCNS(C)(=O)=O)cc2C)C(=O)c2c3c(n(C)c2-c2ccccc2)CCCC3)cc1 [Coupler D-9] |
| 33 | 426 | 21,300 |  |  | CCCCc1ccc(NC(=O)C(=Nc2ccc(N(CC)CCNS(C)(=O)=O)cc2C)C(=O)c2c(-c3ccccc3)n(C)c3ccc(OC)cc23)cc1 [Coupler D-11] |
| 33 | 430 | 20,100 |  |  | CCCCc1ccc(NC(=O)C(=Nc2ccc(N(CC)CCNS(C)(=O)=O)cc2C)C(=O)c2c(-c3ccccc3)n(C)c3ccc(C#N)cc23)cc1 [Coupler D-12] |
| 47 | 444 | 13,400 |  |  | CCCCc1ccc(NC(=O)C(=Nc2ccc(N(CC)CCNS(C)(=O)=O)cc2C)C(=O)c2c(-c3ccccc3)oc3ccccc23)cc1 [Coupler D-13] |
| 46 | 438 | 11,900 |  |  | CCCCc1ccc(NC(=O)C(=Nc2ccc(N(CC)CCNS(C)(=O)=O)cc2C)C(=O)c2c(-c3ccccc3)c3ccccc3n2C)cc1 [Coupler D-14] |
|  |  |  | 0.31 | 610 h | CCCCCCCCCCCCNS(=O)(=O)c1ccc(NC(=O)C(=Nc2ccc(N(CC)CCNS(C)(=O)=O)cc2C)C(=O)c2c(-c3ccccc3)n(C)c3ccccc23)c(Cl)c1 [Coupler D-17] |
|  |  |  | 1.91 | 101 h | CCCCCCCCCCCCCCCCOC(=O)c1ccc(Cl)c(NC(=O)C(=Nc2ccc(N(CC)CCNS(C)(=O)=O)cc2C)C(=O)c2c(C3CCCCC3)n(C)c3ccccc23)c1 [Coupler D-19] |

From patent publication US6083677A, “Photographic element containing yellow dye-forming photographic coupler” (Eastman Kodak Company, priority 1998, dated 2000)
